Experimental data: paper PMC10762035, “Molecular basis of human trace amine-associated receptor 1 activation” (Nature Communications, 2024)
Values joined by “and” are separate entries in the source; they are usually repeats but may differ in a detail not shown here. Equal values may be shown once.

How the values were obtained:
hTA1 [1] = molecular target: T1, hTA1 (Homo sapiens, UniProt Q96RJ0); assay: GloSensor cAMP accumulation assay, concentration response, wild-type hTA1 in transfected HEK293T cells; type: cell-based; details: log[Compound], replicate wells;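 also: luminescence read after 30 min compound exposure at room temperature in cells preloaded with D-Luciferin, reflecting Gs-driven cAMP rise, efficacy scaled to the maximal β-PEA response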
T1 construct: expressed in transfected cells; host or cells: HEK293T
T1 sequence (Q96RJ0 1-339): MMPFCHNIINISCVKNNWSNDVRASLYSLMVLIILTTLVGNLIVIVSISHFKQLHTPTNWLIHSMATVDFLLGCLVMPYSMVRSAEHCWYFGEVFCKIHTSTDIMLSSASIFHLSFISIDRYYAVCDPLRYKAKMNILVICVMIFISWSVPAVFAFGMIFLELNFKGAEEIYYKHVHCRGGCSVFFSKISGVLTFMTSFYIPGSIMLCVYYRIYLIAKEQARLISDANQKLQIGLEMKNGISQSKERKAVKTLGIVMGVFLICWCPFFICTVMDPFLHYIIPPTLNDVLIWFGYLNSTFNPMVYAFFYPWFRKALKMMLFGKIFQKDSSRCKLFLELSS

hTA1 [2] = molecular target: T1, hTA1; assay: Screen of 89 aminergic compounds at 10 µM, cAMP accumulation in HEK293T cells; type: cell-based; details: 10 µM of compound; HEK293T; threshold log2-fold change of 2;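 also: HEK293T cells co-transfected with hTA1 and GloSensor cAMP reporter, cAMP accumulation detected by luminescence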

Structure (SMILES)	Normalized Luminescence Counts for WT hTA1 (hTA1 [1]; M = -5)	Normalized Luminescence Counts for WT hTA1 (hTA1 [1]; M = -5.522)	Normalized Luminescence Counts for WT hTA1 (hTA1 [1]; M = -6)	Normalized Luminescence Counts for WT hTA1 (hTA1 [1]; M = -6.522)	Normalized Luminescence Counts for WT hTA1 (hTA1 [1]; M = -7)	Normalized Luminescence Counts for WT hTA1 (hTA1 [1]; M = -7.522)	Normalized Luminescence Counts for WT hTA1 (hTA1 [1]; M = -8)	Normalized Luminescence Counts for WT hTA1 (hTA1 [1]; M = -8.522)	Normalized Luminescence Counts for WT hTA1 (hTA1 [1]; M = -9)	Normalized Luminescence Counts for WT hTA1 (hTA1 [1]; M = -9.522)	Normalized Luminescence Counts for WT hTA1 (hTA1 [1]; M = -10)	Normalized Luminescence Counts for WT hTA1 (hTA1 [1]; M = -10.522)	Normalized Luminescence Counts for WT hTA1 (hTA1 [1]; M = -11)	Normalized Luminescence Counts for WT hTA1 (hTA1 [1]; M = -11.522)	Normalized Luminescence Counts for WT hTA1 (hTA1 [1]; M = -12)	Normalized Luminescence Counts for WT hTA1 (hTA1 [1]; M = -12.522)	increase of signal over DMSO-treated controls (hTA1 activation) (hTA1 [2]) [fold]
CCN(CC)C(=O)[C@@H]1C=C2c3cccc4[nH]cc(c34)C[C@H]2N(C)C1 [LSD]	23.2463 and 21.0198 and 23.6719 and 20.4035 and 14.0827 and 19.0998	8.12 and 8.709 and 6.057 and 5.51 and 6.34 and 6.182	3.405 and 1.833 (2×) and 1.7572 and 2.35 and 2.5473	0.7855 and 1.3421 and 1.375 and 0.5325 and 0.8881 and 0.6116	-0.0003118 and 0.7527 and 0.5563 and 0.256 and -0.2575 and 0.2165	-0.164 and -0.426 and 0.2944 and -0.4946 (2×) and -0.09953	0.7855 and 0.6873 and 0.03243 and 0.1375 and 0.6116 and -0.2575	-0.2295 and 0.4253 and 0.09791 and 0.05849 and -0.2971 and 0.6511	-0.8516 and -0.1968 and 0.1634 and 0.493 and -0.09953 and 0.2955	-0.295 and -0.3605 and -0.426 and -0.1785 and -0.3761 and -0.06003	-0.09854 and 0.2289 and -0.3605 and -0.4946 and -0.5736 and -0.6131	-0.4587 (2×) and -0.1313 and -0.218 and -1.245 and 0.01898	-0.09854 and 0.3598 and 0.6873 and -0.1785 and -0.09953 and 1.007	0.2289 and 1.08 and 0.3926 and 1.086 and 1.046 and -0.2971	-0.4587 and 0.1634 and 0.4253 and 0.7696 and -0.2575 and 1.836	1.735 and 0.5236 and 0.2616 and 0.05849 and -0.218 and 0.3745	≥ 4
C[C@H](N)Cn1ccc2cc(F)c(Cl)cc21 [Ro600175]	52.641 and 46.7523 and 44.37 and 49.7206 and 44.9424 and 49.1048	20.1192 and 21.0025 and 20.1995 and 33.6184 and 30.3798 and 33.3903	10.3493 and 9.439 and 10.7776 and 14.1863 and 14.9846 and 14.3574	3.39 and 1.971 and 3.3096 and 6.785 and 7.013 and 6.8993	0.6865 and 0.9274 and 0.7668 and 2.03 and 1.973 and 1.7904	-0.2504 and 0.2582 and -0.2236 and 0.6842 and 0.6044 and 0.3991	0.5258 and 0.5794 and 1.275 and 0.4333 and 0.3763 and 0.3649	0.4991 and -0.1166 and 0.392 and 0.03421 and 0.3649 and 0.2509	0.01728 and 0.7935 and -0.1969 and 0.1026 and 0.3877 and 0.2737	0.07081 and -0.08979 and -0.1166 and -0.1482 and -0.114 and 0.07983	0.1243 and -0.009489 and 0.4188 and -0.1825 and -0.0114 and -0.03421	-0.06302 and -0.3842 and 0.1779 and -0.2053 and 0 and -0.05702	0.6329 and 0.3117 and 0.7132 and -0.06842 and 0.4447 and 0.2509	0.4188 and 0.7668 and 0.8738 and 0.4676 and 0.2509 and 0.707	0.5258 and 0.5526 and 1.302 and -0.114 and 0.2737 and 0.1368	0.2046 and 0.1779 and 0.2849 and 0.2623 and 0.4219 and 0.2395	≥ 4
O=C1Nc2cc(Cl)c(Cl)cc2N2CCNCC12 (stereo not shown) [WAY161503]	13.2601 and 18.8261 and 16.7307 and 26.6058 and 24.591 and 22.5763	7.105 and 8.152 and 8.742 and 7.88 and 6.893 and 7.327	0.3926 and 0.6218 and 0.4581 and 2.389 and 1.639 and 1.7967	-0.0003118 and -0.03305 and -0.426 and 0.5325 and 0.2955 and 0.6511	-0.426 and -1.114 and -0.7861 and -0.2575 (2×) and -0.3366	-0.8516 and -1.277 and -0.6879 and -0.3366 and -0.4946 and -1.166	-0.09854 and -0.3605 (2×) and 0.09799 and 0.6511 and -0.3761	-0.3605 and -0.7206 and -0.3932 and 1.165 and 1.046 and 0.6116	-1.048 and -0.2622 and -0.8516 and -0.06003 and 0.2165 and 0.414	-1.277 and -0.8516 and -0.7861 and 0.6116 and 0.01898 and -0.6526	-0.7206 and -0.7534 and -0.3605 and -0.8106 and -0.1785 and -1.087	-0.5897 and -0.09854 and -0.6224 and 0.01898 and -0.3761 and -0.7316	0.09791 and 0.03243 and -0.6224 and -0.2971 and 0.5325 and 0.3745	-0.0003118 and -0.5242 and 0.06517 and -0.09953 and -0.4156 and 0.177	-0.3277 and -0.295 and -0.8189 and 0.4535 and -0.2971 and -0.4156	-0.3932 and -0.5897 (2×) and 0.4535 and -0.4551 and 0.09799	≥ 4
CNC[C@H](O)c1ccc(O)c(O)c1 [epinephrine]	-0.5341 and -0.7316 and 0.493	-0.1785 and 2.231 and -0.218	0.4535 and -0.139	0.493 and 1.046 and -0.7316	-1.759 and -1.996 and -0.9686	-2.549 and -2.2723 and -2.114	-2.035 and -0.8106 and -2.154	-1.917 and -1.68 and -2.233	-2.391 and -2.075 and -2.628	-2.588 and -2.667 and -2.549	-2.865 and -2.47 and -2.391	-2.628 and -2.193 and -2.549	-2.3118 and -2.193 and -2.114	-2.391 and -1.4427 and -1.956	-2.233 and -1.4427 and -1.917	-2.075 and -2.114 and -1.798	≥ 4
CN1C[C@H](C(=O)N[C@]2(C)O[C@@]3(O)[C@@H]4CCCN4C(=O)[C@H](Cc4ccccc4)N3C2=O)C=C2c3cccc4[nH]cc(c34)C[C@H]21 [ergotamine]	44.5775 and 42.7529 and 37.8036	33.1851 and 35.1808 and 34.0176	22.5339 and 18.3829 and 18.9303	13.3539 and 12.6012 and 11.6889	5.28 and 4.447 and 4.037	2.783 and 2.007 and 2.3948	1.311 and 0.7184 and 0.9351	1.095 and 0.9921 and 1.163	0.7184 and 0.3649 and 0.5816	0.2737 and 0.2167 and 0.1254	0.1482 and 0.4219 and 0.2395	0.1825 and 0.5018 and 0.1939	0.114 and 0.536 and 0.4333	0.6956 and 0.3649 and 0.8895	0.479 and 0.6728 and 0.4562	0.3991 and 0.593 and 0.5018	≥ 4
